Assays:
[1] = target: T1, human TLR8 (Homo sapiens, UniProt Q9NR97); experiment: In vitro human TLR8 binding reporter assay (HEK-Blue, NF-kB/AP1-inducible SEAP); type: cell-based; conditions: HEK-Blue human TLR8 SEAP reporter cells; activity range classes; read-out: TLR8 Agonist EC50
T1 construct: host or cells: human HEK-Blue cells (HEK293-derived) co-expressing TLR8 and an NF-kB/AP1-inducible SEAP reporter
T1 sequence (Q9NR97 27-1041): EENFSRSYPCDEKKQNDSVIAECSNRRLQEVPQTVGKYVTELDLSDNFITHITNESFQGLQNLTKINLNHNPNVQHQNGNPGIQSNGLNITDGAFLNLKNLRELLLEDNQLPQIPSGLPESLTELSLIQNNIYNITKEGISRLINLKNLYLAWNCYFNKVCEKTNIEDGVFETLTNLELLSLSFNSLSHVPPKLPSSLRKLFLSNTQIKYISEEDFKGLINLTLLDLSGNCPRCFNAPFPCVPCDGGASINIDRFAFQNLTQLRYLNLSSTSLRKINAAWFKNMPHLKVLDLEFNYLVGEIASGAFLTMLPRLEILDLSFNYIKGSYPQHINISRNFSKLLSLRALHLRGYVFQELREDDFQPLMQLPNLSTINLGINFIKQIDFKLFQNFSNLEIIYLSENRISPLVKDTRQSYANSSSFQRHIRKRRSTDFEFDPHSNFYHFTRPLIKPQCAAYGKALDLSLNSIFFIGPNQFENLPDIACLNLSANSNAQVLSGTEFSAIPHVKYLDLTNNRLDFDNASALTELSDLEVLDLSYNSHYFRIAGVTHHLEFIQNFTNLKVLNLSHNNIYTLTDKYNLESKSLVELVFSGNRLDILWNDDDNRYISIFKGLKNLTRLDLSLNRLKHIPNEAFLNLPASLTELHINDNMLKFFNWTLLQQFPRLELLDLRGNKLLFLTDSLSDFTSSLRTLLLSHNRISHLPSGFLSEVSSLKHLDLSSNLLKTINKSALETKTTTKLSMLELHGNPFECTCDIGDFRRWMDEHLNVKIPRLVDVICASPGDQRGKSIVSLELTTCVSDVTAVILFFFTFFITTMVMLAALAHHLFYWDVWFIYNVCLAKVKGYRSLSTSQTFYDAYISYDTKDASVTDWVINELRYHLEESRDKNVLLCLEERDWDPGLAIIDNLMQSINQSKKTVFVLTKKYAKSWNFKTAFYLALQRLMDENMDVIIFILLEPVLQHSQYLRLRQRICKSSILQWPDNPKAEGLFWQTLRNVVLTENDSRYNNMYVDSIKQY
Method in brief: (§1)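 HEK-Blue cells expressing human TLR7 or TLR8 with NF-kB/AP1-inducible SEAP reporter, plated 24 h, then compound-treated 18 h at 37° C, 5% CO2. EC50 normalized to 100% Ymax set by 50 μM reference standard.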

[2] = target: T2, human TLR7 (Homo sapiens, UniProt Q9NYK1); experiment: In vitro human TLR7 binding reporter assay (HEK-Blue, NF-kB/AP1-inducible SEAP); type: cell-based; conditions: HEK-Blue human TLR7 SEAP reporter cells; activity range classes; read-out: TLR7 Agonist EC50
T2 construct: host or cells: human HEK-Blue cells (HEK293-derived) co-expressing TLR7 and an NF-kB/AP1-inducible SEAP reporter
T2 sequence (Q9NYK1 27-1049): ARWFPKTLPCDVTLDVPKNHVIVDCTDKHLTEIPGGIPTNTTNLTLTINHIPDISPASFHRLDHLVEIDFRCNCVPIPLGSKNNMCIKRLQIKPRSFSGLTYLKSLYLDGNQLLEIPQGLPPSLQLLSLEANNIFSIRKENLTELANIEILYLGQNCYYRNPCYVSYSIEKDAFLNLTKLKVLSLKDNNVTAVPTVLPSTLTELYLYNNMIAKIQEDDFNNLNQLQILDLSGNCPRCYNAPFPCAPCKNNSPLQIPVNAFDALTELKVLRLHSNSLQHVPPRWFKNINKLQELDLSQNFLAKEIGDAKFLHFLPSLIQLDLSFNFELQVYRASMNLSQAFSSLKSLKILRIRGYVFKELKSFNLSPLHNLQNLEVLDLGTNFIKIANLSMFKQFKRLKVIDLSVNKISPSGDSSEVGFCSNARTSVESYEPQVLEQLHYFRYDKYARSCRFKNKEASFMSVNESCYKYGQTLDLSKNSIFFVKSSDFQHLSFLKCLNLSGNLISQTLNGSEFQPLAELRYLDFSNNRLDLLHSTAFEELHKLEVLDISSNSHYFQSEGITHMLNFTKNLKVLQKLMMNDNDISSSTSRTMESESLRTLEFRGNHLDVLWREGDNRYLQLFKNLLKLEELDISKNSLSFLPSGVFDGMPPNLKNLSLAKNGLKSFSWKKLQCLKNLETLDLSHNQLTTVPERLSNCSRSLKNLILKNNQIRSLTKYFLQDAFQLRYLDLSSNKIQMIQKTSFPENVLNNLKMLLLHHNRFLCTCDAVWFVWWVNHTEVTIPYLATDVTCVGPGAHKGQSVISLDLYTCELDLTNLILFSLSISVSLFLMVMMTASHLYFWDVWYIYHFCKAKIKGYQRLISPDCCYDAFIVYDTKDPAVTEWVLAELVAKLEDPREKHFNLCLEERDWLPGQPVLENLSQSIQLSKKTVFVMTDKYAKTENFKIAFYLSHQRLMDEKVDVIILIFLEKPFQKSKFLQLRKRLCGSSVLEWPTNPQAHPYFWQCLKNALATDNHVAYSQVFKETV
Method in brief: as §1

[3] = tested on: IL-1β production in PMA-differentiated THP-1 cells; experiment: Measurement of IL-1β production in PMA-differentiated THP-1 cells (ELISA, 4 hours); type: cell-based, human; conditions: Homo sapiens, THP-1, human IL-1β production, assayed using one or more of the described procedures, read-out: NLRP3 hIL1B IC50
Method in brief: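 THP-1 cells differentiated with PMA (10 μg/ml, 24 h), replated at 1×10^6 cells/ml in RPMI with 2% FBS and exposed to compounds (e.g. 0.1–100 μM, 1% DMSO final) for 4 hours. IL-1β in cell-free supernatant quantified by ELISA against vehicle control.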

Nc1cc(N[C@H]2CC[C@@H](O)CC2)c2ccc(-c3ccn[nH]3)cc2n1 [Compound 283]
EC50 [1]: > 100 µM
EC50 [2]: > 100 µM
IC50 [3]: 1.7 µM

Nc1cc(NCCc2cccnc2)c2ccc(-c3ccn[nH]3)cc2n1 [Compound 284]
EC50 [1]: > 100 µM
EC50 [2]: > 100 µM
IC50 [3]: 0.38 µM

Nc1cc(NC[C@H]2CCCN2)c2ccc(-c3cc[nH]n3)cc2n1 [Compound 285]
EC50 [1]: > 100 µM
EC50 [2]: > 100 µM
IC50 [3]: 1.56 µM

Nc1cc(N2CCCNCC2)c2ccc(-c3cc[nH]n3)cc2n1 [Compound 286]
EC50 [1]: > 100 µM
EC50 [2]: > 100 µM
IC50 [3]: 13.1 µM

Nc1cc(NC[C@@H](O)CO)c2ccc(-c3ccn[nH]3)cc2n1 [Compound 287]
EC50 [1]: > 100 µM
EC50 [2]: > 100 µM
IC50 [3]: 0.7 µM

Nc1cc(N[C@H]2CCCOC2)c2ccc(-c3ccn[nH]3)cc2n1 [Compound 288]
EC50 [1]: > 100 µM
EC50 [2]: > 100 µM
IC50 [3]: 0.39 µM

Nc1cc(N[C@@H]2CCCOC2)c2ccc(-c3ccn[nH]3)cc2n1 [Compound 289]
EC50 [1]: > 100 µM
EC50 [2]: > 100 µM
IC50 [3]: 0.85 µM

CCO[C@H]1COC[C@@H]1Nc1cc(N)nc2cc(-c3ccn[nH]3)ccc12 [Compound 291]
EC50 [1]: > 100 µM
EC50 [2]: > 100 µM
IC50 [3]: 1.67 µM

Nc1cc(NCc2cc[nH]n2)c2ccc(-n3cccn3)cc2n1 [Compound 292]
EC50 [1]: > 100 µM
EC50 [2]: > 100 µM
IC50 [3]: 0.34 µM

Nc1cc(NCCc2ccccn2)c2ccc(-n3cccn3)cc2n1 [Compound 293]
EC50 [1]: > 100 µM
EC50 [2]: > 100 µM
IC50 [3]: 0.87 µM

Nc1cc(NCc2nc[nH]n2)c2ccc(-n3cccn3)cc2n1 [Compound 294]
EC50 [1]: > 100 µM
EC50 [2]: > 100 µM
IC50 [3]: 0.21 µM

Nc1cc(N[C@@H]2CCC[C@@H]2O)c2ccc(-n3cccn3)cc2n1 [Compound 295]
EC50 [1]: > 100 µM
EC50 [2]: > 100 µM
IC50 [3]: 0.31 µM

Nc1cc(NCCO)c2ccc(-n3cccn3)cc2n1 [Compound 296]
EC50 [1]: > 100 µM
EC50 [2]: > 100 µM
IC50 [3]: 0.56 µM

Nc1cc(NCCc2nccs2)c2ccc(-n3cccn3)cc2n1 [Compound 297]
EC50 [1]: > 100 µM
EC50 [2]: > 100 µM
IC50 [3]: 0.57 µM

Nc1cc(NCc2ncc[nH]2)c2ccc(-n3cccn3)cc2n1 [Compound 298]
EC50 [1]: > 100 µM
EC50 [2]: > 100 µM
IC50 [3]: 0.15 µM

Nc1cc(NCC(F)(F)c2ccccn2)c2ccc(-n3cccn3)cc2n1 [Compound 299]
EC50 [1]: > 100 µM
EC50 [2]: > 100 µM
IC50 [3]: 0.65 µM

Nc1cc(NCc2ccccn2)c2ccc(-n3cccn3)cc2n1 [Compound 300]
EC50 [1]: > 100 µM
EC50 [2]: > 100 µM
IC50 [3]: 0.54 µM

CC(C)(O)CCNc1cc(N)nc2cc(-n3cccn3)ccc12 [Compound 301]
EC50 [1]: > 100 µM
EC50 [2]: > 100 µM
IC50 [3]: 1.01 µM

Nc1cc(NCCn2cccn2)c2ccc(-n3cccn3)cc2n1 [Compound 302]
EC50 [1]: > 100 µM
EC50 [2]: > 100 µM
IC50 [3]: 0.05 µM

Cc1nc(CNc2cc(N)nc3cc(-n4cccn4)ccc23)cs1 [Compound 303]
EC50 [1]: > 100 µM
EC50 [2]: > 100 µM
IC50 [3]: 0.14 µM

Nc1cc(N[C@H]2CCC[C@H]2O)c2ccc(-n3cccn3)cc2n1 [Compound 304]
EC50 [1]: > 100 µM
EC50 [2]: > 100 µM
IC50 [3]: 0.37 µM

CS(=O)(=O)CCNc1cc(N)nc2cc(-n3cccn3)ccc12 [Compound 305]
EC50 [1]: > 100 µM
EC50 [2]: > 100 µM
IC50 [3]: 0.64 µM

CC(=O)NCCNc1cc(N)nc2cc(-n3cccn3)ccc12 [Compound 306]
EC50 [1]: > 100 µM
EC50 [2]: > 100 µM
IC50 [3]: 1.1 µM

Nc1cc(NCc2cnc[nH]2)c2ccc(-n3cccn3)cc2n1 [Compound 307]
EC50 [1]: > 100 µM
EC50 [2]: > 100 µM
IC50 [3]: 0.11 µM

Nc1cc(NCCn2cncn2)c2ccc(-n3cccn3)cc2n1 [Compound 308]
EC50 [1]: > 100 µM
EC50 [2]: > 100 µM
IC50 [3]: 0.52 µM

Nc1cc(NCc2cccnn2)c2ccc(-n3cccn3)cc2n1 [Compound 309]
EC50 [1]: > 100 µM
EC50 [2]: > 100 µM
IC50 [3]: 0.42 µM

CC(C)(CO)COc1cc(N)nc2cc(-c3ccn[nH]3)ccc12 [Compound 310]
EC50 [1]: > 100 µM
EC50 [2]: > 100 µM
IC50 [3]: 0.11 µM

Cn1nncc1COc1cc(N)nc2cc(-c3ccn[nH]3)ccc12 [Compound 311]
EC50 [1]: > 100 µM
EC50 [2]: > 100 µM
IC50 [3]: 3.13 µM

Cn1ncnc1COc1cc(N)nc2cc(-c3ccn[nH]3)ccc12 [Compound 312]
EC50 [1]: > 100 µM
EC50 [2]: > 100 µM
IC50 [3]: 1.59 µM

Nc1cc(OCc2ccn[nH]2)c2ccc(-c3ccn[nH]3)cc2n1 [Compound 313, 4-((1H-pyrazol-5-yl)methoxy)-7-(1H-pyrazol-5-yl)quinolin-2-amine]
EC50 [1]: > 100 µM
EC50 [2]: > 100 µM
IC50 [3]: 0.11 µM

Nc1ccc2ccc(-c3ccn[nH]3)cc2n1 [Compound 314, 7-(1H-pyrazol-5-yl)quinolin-2-amine]
EC50 [1]: > 100 µM
EC50 [2]: > 100 µM
IC50 [3]: 1.8 µM
